Assay results reported in patent EP1137645B1, “ALPHA-METHYLBENZYL-CONTAINING THIOUREA INHIBITORS OF HERPES VIRUSES CONTAINING A […] GROUP” (Wyeth, priority 1998, dated 2000).
≈ marks a conversion by molar mass, not a printed value. Like-named read-outs stand apart in the source and are kept apart here.

Tests used:
VZV strain Ellen = experiment: VZV antiviral (ELISA) assay; assay type: cell-based
Procedure, shortened: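 HFF cells infected with VZV Ellen at multiplicity below 0.1 overnight, then mixed infected/uninfected cells seeded with compound in DMEM/2% FBS and incubated three days at 37°C, 5% CO2.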

HSV- I = experiment: HSV antiviral (ELISA) assay; assay type: cell-based; conditions: read-out: IC50 (ug/ml) HSV
Procedure, shortened: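 Vero cells in DMEM with 2% FBS treated with compound 30 min before HSV-1 infection (MOI 0.006), then incubated ~24 h at 37°C. Viral replication measured by ELISA against glycoprotein D with β-galactosidase-linked secondary and fluorogenic substrate (ex 365/em 450 nm); IC50 relative to untreated fluorescence.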

[1] = tested on: HCMV recombinant mutant virus whose genome contains the prokaryotic beta-glucuronidase gene; experiment: microbe, parasite or virus in culture; assay type: cell-based, human cytomegalovirus; conditions: for IC50: Human betaherpesvirus 5, Fibroblast
Procedure, shortened: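 Human foreskin fibroblasts infected with HCMV recombinant carrying beta-glucuronidase under a viral promoter (e.g. RV145) in presence of compound. At 96 h post-infection, lysates assayed for beta-glucuronidase by colorimetric or fluorogenic substrate as replication readout; IC50 estimated from varying compound amounts.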

[2] = Human alphaherpesvirus 3, HFF, read-out: % inhibition 10 ug/ml VZV
[3] = Human alphaherpesvirus 3, HFF, read-out: IC50 (ug/ml) VZV
[4] = read-out: IC50 ug/ml HCMV, HCMV, human foreskin fibroblasts
[5] = Human alphaherpesvirus 3, read-out: % inhibition 10 ug/ml VZV, 10 ug/ml, VZV strain Ellen, HFF cells, ELISA
[6] = Human alphaherpesvirus 3, VZV strain Ellen, HFF cells, ELISA, read-out: IC50 (ug/ml) VZV
[7] = Human alphaherpesvirus 3, HFF, read-out: IC50 (ug/ml) VZV, VZV strain Ellen, HFF cells, ELISA

| SMILES | inhibition at 10 µg/mL (VZV strain Ellen; [2]) | IC50 (VZV strain Ellen; [3]) | IC50 (HSV- I; HSV- I, Vero cells, ELISA) | IC50 [1, 4] | inhibition at 10 µg/mL (VZV strain Ellen; [5]) | IC50 (VZV strain Ellen; [6]) | IC50 ([1]; read-out: IC50 ug/ml HCMV) | IC50 (VZV strain Ellen; [7]) | IC50 (HSV- I; Vero) | IC50 ug/ml HCMV ([1]; HCMV, human foreskin fibroblasts) |
| --- | --- | --- | --- | --- | --- | --- | --- | --- | --- | --- |
| COc1cccc(C(=O)Nc2ccc(NC(=S)Nc3cc(Cl)c(OC)c(Cl)c3)cc2)c1 [Example 875, N-{4-[3-(3,5-Dichloro-4-methoxy-phenyl)-thioureido]-phenyl}-3-methoxy-benzamide] | 20% | > 10 µg/mL | 6 µg/mL (≈ 12.6 µM) | 0.4 µg/mL (≈ 0.84 µM) |  |  |  |  |  |  |
| COc1ccc(C(=O)Nc2ccc(NC(=S)Nc3cc(Cl)c(OC)c(Cl)c3)cc2)cc1 [Example 880, N-{4-[3-(3,5-Dichloro-4-methoxy-phenyl)-thioureido]-phenyl}-4-methoxy-benzamide] | 30% | > 10 µg/mL | > 10 µg/mL | 10 µg/mL (≈ 21 µM) |  |  |  |  |  |  |
| O=C(Nc1ccc(NC(=S)Nc2ccc(C(F)(F)F)c(Cl)c2)cc1)c1ccccc1F [Example 911, N-{4-[3-(3-Chloro-4-trifluoromethyl-phenyl)-thioureido]-phenyl}-2-fluoro-benzamide] | 38% | > 10 µg/mL | > 10 µg/mL | 8 µg/mL (≈ 17.1 µM) |  |  |  |  |  |  |
| O=C(Nc1ccc(NC(=S)Nc2ccc(Cl)c(Cl)c2)cc1)c1ccccc1F [Example 912, N-{4-[3-(3,4-Dichloro-phenyl)-thioureido]-phenyl}-2-fluoro-benzamide] | 21% | > 10 µg/mL | 8 µg/mL (≈ 18.4 µM) | > 10 µg/mL |  |  |  |  |  |  |
| O=C(Nc1ccc(NC(=S)Nc2ccc(Br)c(Cl)c2)cc1)c1ccccc1F [Example 915, N-{4-[3-(4-Bromo-3-chloro-phenyl)-thioureido]-phenyl}-2-fluoro-benzamide] |  |  | > 10 µg/mL |  | 29% | > 10 µg/mL | > 10 µg/mL |  |  |  |
| O=C(Nc1ccc(NC(=S)Nc2ccc(I)c(Cl)c2)cc1)c1ccccc1F [Example 916, N-{4-[3-(3-Chloro-4-iodo-phenyl)-thioureido]-phenyl}-2-fluoro-benzamide] | 30% | > 10 µg/mL | > 10 µg/mL | 3 µg/mL (≈ 5.71 µM) |  |  |  |  |  |  |
| O=C(Nc1ccc(NC(=S)Nc2ccc(F)c(Cl)c2)cc1)c1ccccc1F [Example 922, N-{4-[3-(3-Chloro-4-fluoro-phenyl)-thioureido]-phenyl}-2-fluoro-benzamide] | 40% | > 10 µg/mL | 1 µg/mL (≈ 2.39 µM) | > 10 µg/mL |  |  |  |  |  |  |
| O=C(Nc1ccc(NC(=S)Nc2cc(Cl)ccc2Cl)cc1)c1ccccc1F [Example 931, N-{4-[3-(2,5-Dichloro-phenyl)-thioureido]-phenyl}-2-fluoro-benzamide] | 51% | > 10 µg/mL | 4 µg/mL (≈ 9.21 µM) | > 10 µg/mL |  |  |  |  |  |  |
| O=C(Nc1ccc(NC(=S)Nc2cc(Cl)cc(Cl)c2)cc1)c1ccccc1F [Example 934, N-{4-[3-(3,5-Dichloro-phenyl)-thioureido]-phenyl}-2-fluoro-benzamide] | 18% | > 10 µg/mL | > 10 µg/mL | > 10 µg/mL |  |  |  |  |  |  |
| O=C(Nc1ccc(NC(=S)Nc2cc(Cl)c(Cl)c(Cl)c2)cc1)c1ccccc1F [Example 937, 2-Fluoro-N-{4-[3-(3,4,5-trichloro-phenyl)-thioureido]-phenyl}-benzamide] |  |  | 0.7 µg/mL (≈ 1.49 µM) |  | 25% | > 10 µg/mL | 2 µg/mL (≈ 4.27 µM) |  |  |  |
| O=C(Nc1ccc(NC(=S)Nc2ccccc2Cl)cc1)c1ccccc1F [Example 948, N-{4-[3-(2-Chloro-phenyl)-thioureido]-phenyl}-2-fluoro-benzamide] | 4% | > 10 µg/mL | 6 µg/mL (≈ 15 µM) | 4 µg/mL (≈ 10 µM) |  |  |  |  |  |  |
| COC(=O)c1cccc(NC(=S)Nc2ccc(NC(=O)c3ccccc3F)cc2)c1 [Example 950, 3-{3-[4-(2-Fluoro-benzoylamino)-phenyl]-thioureido}-benzoic acid methyl ester] |  |  | 8 µg/mL (≈ 18.9 µM) |  |  | > 10 µg/mL | > 10 µg/mL |  |  |  |
| NC(=O)c1cccc(NC(=S)Nc2ccc(NC(=O)c3ccccc3F)cc2)c1 [Example 952, N-[4-[[[[3-(Aminocarbonyl)phenyl]amino]thioxomethyl]amino]phenyl]-2-fluoro-benzamide] |  |  | > 10 µg/mL |  | 22% | > 10 µg/mL | > 10 µg/mL |  |  |  |
| O=C(Nc1ccc(NC(=S)Nc2cccc([N+](=O)[O-])c2)cc1)c1ccccc1F [Example 959, 2-Fluoro-N-{4-[3-(3-nitro-phenyl)-thioureido]-phenyl}-benzamide] |  |  | 0.7 µg/mL (≈ 1.71 µM) |  | 33% | > 10 µg/mL | > 10 µg/mL |  |  |  |
| O=C(Nc1ccc(NC(=S)Nc2cccc(OC(F)(F)F)c2)cc1)c1ccccc1F [Example 961, 2-Fluoro-N-{4-[3-(3-trifluoromethoxy-phenyl)-thioureido]-phenyl}-benzamide] |  |  | > 10 µg/mL |  | 53% | > 10 µg/mL | > 10 µg/mL |  |  |  |
| O=C(Nc1ccc(NC(=S)Nc2cccc(F)c2)cc1)c1ccccc1F [Example 962, 2-Fluoro-N-{4-[3-(3-fluoro-phenyl)-thioureido]-phenyl}-benzamide] |  |  | > 10 µg/mL |  | 10% | > 10 µg/mL | > 10 µg/mL |  |  |  |
| O=C(O)c1cccc(NC(=S)Nc2ccc(NC(=O)c3ccccc3F)cc2)c1 [Example 963, 3-{3-[4-(2-Fluoro-benzoylamino)-phenyl]-thioureido}-benzoic acid] |  |  | > 10 µg/mL |  | 30% | > 10 µg/mL | > 10 µg/mL |  |  |  |
| O=C(O)c1cccc(NC(=S)Nc2ccc(NC(=O)c3ccco3)cc2)c1 [Example 964, 3-(3-{4-[(Furan-2-carbonyl)-amino]-phenyl}-thioureido)-benzoic acid] |  |  | > 10 µg/mL |  | 0% | > 10 µg/mL | > 10 µg/mL |  |  |  |
| CC(=O)c1cccc(NC(=S)Nc2ccc(NC(=O)c3ccccc3F)cc2)c1 [Example 965, N-{4-[3-(3-Acetyl-phenyl)-thioureido]-pbenyl}-2-fluoro-benzamide] | 12% | > 10 µg/mL | 5 µg/mL (≈ 12.3 µM) | > 10 µg/mL |  |  |  |  |  |  |
| CCCCNS(=O)(=O)c1cccc(NC(=S)Nc2ccc(NC(=O)c3ccccc3F)cc2)c1 [Example 966, N-{4-[3-(3-Butylsulfamoyl-phenyl)-thioureido]-phenyl}-2-fluoro-benzamide] | 95% | 8 µg/mL (≈ 16 µM) | 7 µg/mL (≈ 14 µM) | 2.5 µg/mL (≈ 4.99 µM) |  |  |  |  |  |  |
| O=C(Nc1ccc(NC(=S)Nc2cccc(S(=O)(=O)CCO)c2)cc1)c1ccccc1F [Example 969, 2-Fluoro-N-(4-{3-[3-(2-hydroxy-ethanesulfonyl)-phenyl]-thioureido}-phenyl)-benzamide] | 19% | > 10 µg/mL | > 10 µg/mL | > 10 µg/mL |  |  |  |  |  |  |
| CC(NC(=S)Nc1ccc(NC(=O)c2ccccc2C(F)(F)F)cc1)c1cc2ccccc2o1 (centres unmarked) [Example 974, N-{4-[3-(1-Benzofuran-2-yl-ethyl)-thioureido]-phenyl}-2-trifluoromethyl-benzamide] |  |  |  | > 10 µg/mL |  |  |  | > 7.5 µg/mL | > 10 µg/mL |  |
| CC(NC(=S)Nc1ccc(C(=O)Nc2ccc(F)cc2)cc1)c1ccc(F)cc1 (centres unmarked) [Example 975, N-(4-Fluoro-phenyl)-4-{3-[1-(4-fluoro-phenyl)-ethyl]-thioureido}-benzamide] |  |  | > 10 µg/mL |  |  | 0.87 µg/mL (≈ 2.11 µM) | > 10 µg/mL |  |  |  |
| CC(NC(=S)Nc1ccc(NC(=O)c2nccc3ccccc23)cc1)c1ccc(F)cc1 (centres unmarked) [Example 976, Isoquinoline-1-carboxylic acid (4-{3-[1-(4-fluoro-phenyl)-ethyl]-thioureido}-phenyl)-amide] |  |  |  |  |  |  |  | 0.04 µg/mL (≈ 0.09 µM) | > 10 µg/mL | >10 µg/mL |
| CC(NC(=S)Nc1ccc(NC(=O)c2nccc3ccccc23)cc1)c1cc2ccccc2o1 (centres unmarked) [Example 977, Isoquinoline-1-carboxylic acid {4-[3-(1-benzofuran-2-yl-ethyl)-thioureido]-phenyl}-amide] |  |  |  | > 10 µg/mL |  |  |  | 0.05 µg/mL (≈ 0.107 µM) | > 10 µg/mL |  |
| CC(NC(=S)Nc1ccc(NC(=O)c2nccc3ccccc23)cc1)c1ccc(Br)cc1 (centres unmarked) [Example 978, Isoquinoline-1-carboxylic acid (4-{3-[1-(4-bromo-phenyl)-ethyl]-thioureido}-phenyl)-amide] |  |  |  | 7.8 µg/mL (≈ 15.4 µM) |  |  |  | 0.04 µg/mL (≈ 0.0791 µM) | > 10 µg/mL |  |
| CC(NC(=S)Nc1ccc(NC(=O)c2nccc3ccccc23)cc1)c1ccc(C#N)cc1 (centres unmarked) [Example 979, Isoquinoline-1-carboxylic acid (4-{3-[1-(4-cyano-phenyl)-ethyl]-thioureido}-phenyl)-amide] |  |  |  | 3.7 µg/mL (≈ 8.19 µM) |  |  |  | 0.13 µg/mL (≈ 0.288 µM) | > 10 µg/mL |  |
| CC(NC(=S)Nc1ccc(NC(=O)c2cc3ccccc3o2)cc1)c1ccc(F)cc1 (centres unmarked) [Example 980, Benzofuran-2-carboxylic acid (4-{3-[1-(4-fluoro-phenyl)-ethyl]-thioureido}-phenyl)-amide] |  | 0.15 µg/mL (≈ 0.346 µM) | > 10 µg/mL | > 10 µg/mL |  |  |  |  |  |  |
| CC(NC(=S)Nc1ccc(NC(=O)c2cc3ccccc3o2)cc1)c1cc2ccccc2o1 (centres unmarked) [Example 981, Benzofuran-2-carboxylic acid {4-[3-(1-benzofuran-2-yl-ethyl)-thioureido]-phenyl}-amide] |  | 0.2 µg/mL (≈ 0.439 µM) | > 10 µg/mL | > 10 µg/mL |  |  |  |  |  |  |
